Experimental data reported in ChEMBL document CHEMBL5376002, “A Hybrid Antimicrobial Peptide Targeting Staphylococcus aureus with a Dual Function of Inhibiting Quorum Sensing Signaling and an Antibacterial Effect” (J Med Chem, 2023).
In brackets after ≈: the same amount, converted by molar mass. Activity calls are given as the source filed them. The calls are words filed in the database; no cut-off is given here. Numbered stars: 1 amine (or outer) side, 2 acyl side, 3 side chain; on linkers, the order of the positions; unused ones are H or OH. Bridge positions count the residues as written; N and C are the ends. Square brackets hold non-standard residues; d marks the D form. Peptide text beside a SMILES is read from it. I, II: the chains in the order shown. X1 = O=C1CC([*:2])C(=O)N1CCCCCC(=O)[*:1]; Dab = NCC[C@H](N)C(=O)O

Columns and labels:
[1] = tested on: Staphylococcus saprophyticus; test: Antibacterial activity against Staphylococcus saprophyticus ATCC BAA-750 assessed as inhibition of bacterial growth incubated for 18 to 24 hrs; format: functional; details: time 18-24 hrs
[2] = species: Homo sapiens; test: Binding affinity to AgrC-I extra-loop-I (unknown origin) assessed as gibbs free energy change incubated for 10 mins by isothermal titration calorimetry analysis
[3] = tested on: Streptococcus mutans; test: Antibacterial activity against Streptococcus mutans ATCC 25175 assessed as inhibition of bacterial growth incubated for 18 to 24 hrs; format: functional; details: time 18-24 hrs
[4] = tested on: Staphylococcus aureus; test: Antibacterial activity against Staphylococcus aureus ATCC 12600 assessed as inhibition of bacterial growth incubated for 18 to 24 hrs; format: functional; details: time 18-24 hrs
[5] = tested on: Staphylococcus aureus; test: Antibacterial activity against Staphylococcus aureus ATCC 6538p assessed as inhibition of bacterial growth incubated for 18 to 24 hrs; format: functional; details: time 18-24 hrs
[6] = species: Homo sapiens; test: Binding affinity to AgrC-I extra-loop-II (unknown origin) assessed as change in entropy incubated for 10 mins by isothermal titration calorimetry analysis
[7] = Binding affinity to AgrC-I extra-loop-III (unknown origin) assessed as dissociation constant incubated for 10 mins by isothermal titration calorimetry analysis
[8] = Binding affinity to AgrC-I extra-loop-I (unknown origin) assessed as dissociation constant incubated for 10 mins by isothermal titration calorimetry analysis
[9] = tested on: Staphylococcus aureus; test: Bactericidal activity against Staphylococcus aureus ATCC 43300 assessed as inhibition of bacterial growth incubated for 18 to 24 hrs; format: functional; details: time 18-24 hrs
[10] = tested on: Staphylococcus aureus; test: Inhibition of biofilm formation in Staphylococcus aureus at 0.78 to 1.56 uM incubated for 24 hrs by crystal violet staining based analysis; format: functional, organism-based; details: dose 0.78-1.56 µM
[11] = Binding affinity to AgrC-I extra-loop-II (unknown origin) assessed as dissociation constant incubated for 10 mins by isothermal titration calorimetry analysis
[12] = tested on: Staphylococcus aureus; test: Antibacterial activity against Staphylococcus aureus ATCC 43300 assessed as inhibition of bacterial growth incubated for 18 to 24 hrs; format: functional; details: time 18-24 hrs
[13] = species: Homo sapiens; test: Binding affinity to AgrC-I extra-loop-III (unknown origin) assessed as change in entropy incubated for 10 mins by isothermal titration calorimetry analysis
[14] = tested on: Streptococcus mutans; test: Antibacterial activity against Streptococcus mutans UA159 assessed as inhibition of bacterial growth incubated for 18 to 24 hrs; format: functional; details: time 18-24 hrs
[15] = tested on: Streptococcus mutans; test: Bactericidal activity against Streptococcus mutans ATCC 25175 assessed as inhibition of bacterial growth incubated for 18 to 24 hrs; format: functional; details: time 18-24 hrs
[16] = tested on: Staphylococcus aureus; test: Bactericidal activity against Staphylococcus aureus ATCC 12600 assessed as inhibition of bacterial growth incubated for 18 to 24 hrs; format: functional; details: time 18-24 hrs
[17] = tested on: Staphylococcus epidermidis; test: Bactericidal activity against Staphylococcus epidermidis ATCC 12228 assessed as inhibition of bacterial growth incubated for 18 to 24 hrs; format: functional; details: time 18-24 hrs
[18] = species: Homo sapiens; test: Binding affinity to AgrC-I extra-loop-III (unknown origin) assessed as gibbs free energy change incubated for 10 mins by isothermal titration calorimetry analysis
[19] = tested on: Staphylococcus saprophyticus; test: Bactericidal activity against Staphylococcus saprophyticus ATCC BAA-750 assessed as inhibition of bacterial growth incubated for 18 to 24 hrs; format: functional; details: time 18-24 hrs
[20] = Binding affinity to AgrC-I extra-loop-III (unknown origin) assessed as change in enthalpy incubated for 10 mins by isothermal titration calorimetry analysis
[21] = tested on: Staphylococcus aureus; test: Bactericidal activity against Staphylococcus aureus ATCC 6538p assessed as inhibition of bacterial growth incubated for 18 to 24 hrs; format: functional; details: time 18-24 hrs
[22] = Binding affinity to AgrC-I extra-loop-I (unknown origin) assessed as change in enthalpy incubated for 10 mins by isothermal titration calorimetry analysis
[23] = tested on: Escherichia coli; test: Bactericidal activity against Escherichia coli ATCC 25922 assessed as inhibition of bacterial growth incubated for 18 to 24 hrs; format: functional; details: time 18-24 hrs
[24] = tested on: Escherichia coli; test: Antibacterial activity against Escherichia coli ATCC 25922 assessed as inhibition of bacterial growth incubated for 18 to 24 hrs; format: functional; details: time 18-24 hrs
[25] = species: Homo sapiens; test: Binding affinity to AgrC-I extra-loop-I (unknown origin) assessed as change in entropy incubated for 10 mins by isothermal titration calorimetry analysis
[26] = tested on: Streptococcus mutans; test: Bactericidal activity against Streptococcus mutans UA159 assessed as inhibition of bacterial growth incubated for 18 to 24 hrs; format: functional; details: time 18-24 hrs
[27] = tested on: Staphylococcus epidermidis; test: Antibacterial activity against Staphylococcus epidermidis ATCC 12228 assessed as inhibition of bacterial growth incubated for 18 to 24 hrs; format: functional; details: time 18-24 hrs
[28] = tested on: Streptococcus pneumoniae; test: Bactericidal activity against Streptococcus pneumoniae ATCC 49619 assessed as inhibition of bacterial growth incubated for 18 to 24 hrs; format: functional; details: time 18-24 hrs
[29] = tested on: Streptococcus pneumoniae; test: Antibacterial activity against Streptococcus pneumoniae ATCC 49619 assessed as inhibition of bacterial growth incubated for 18 to 24 hrs; format: functional; details: time 18-24 hrs
[30] = Binding affinity to AgrC-I extra-loop-II (unknown origin) assessed as change in enthalpy incubated for 10 mins by isothermal titration calorimetry analysis
[31] = species: Homo sapiens; test: Binding affinity to AgrC-I extra-loop-II (unknown origin) assessed as gibbs free energy change incubated for 10 mins by isothermal titration calorimetry analysis
[32] = tested on: RAW264.7; test: Cytotoxicity against mouse RAW264.7 cells assessed as cell viability incubated for 48 hrs by MTT assay; format: functional

SMILES | MIC [1] [µM] | MIC [3] [µM] | MIC [4] [µM] | MIC [5] [µM] | MBC [9] [µM] | MIC [12] [µM] | MIC [14] [µM] | MBC [15] [µM] | MBC [16] [µM] | MBC [17] [µM] | MBC [19] [µM] | MBC [21] [µM] | MBC [23] [µM] | MIC [24] [µM] | MBC [26] [µM] | MIC [27] [µM] | MBC [28] [µM] | MIC [29] [µM] | also measured
CC[C@H](C)[C@H](N)C(=O)N[C@@H](CC(N)=O)C(=O)N[C@@H](CCN)C(=O)N[C@@H](C)C(=O)N[C@@H](Cc1ccccc1)C(=O)N[C@@H](CC(C)C)C(=O)N[C@@H](CC(C)C)C(=O)NCC(=O)NCC(=O)NCC(=O)N[C@H](C(=O)N[C@@H](CCCCN)C(=O)N[C@@H](CC(N)=O)C(=O)N[C@@H](CC(C)C)C(=O)N[C@@H](Cc1c[nH]c2ccccc12)C(=O)N[C@@H](CCCCN)C(=O)N[C@@H](CCCCN)C(=O)N[C@@H](CCSC)C(=O)N[C@H](C(=O)N[C@@H](CCCCN)C(=O)N[C@@H](CC(C)C)C(=O)N[C@@H](Cc1c[nH]c2ccccc12)C(=O)N[C@@H](Cc1ccc(O)cc1)C(=O)O)[C@@H](C)CC)[C@@H](C)CC (H-IN[Dab]AFLLGGGIKNLWKKMIKLWY-OH) | 3.13 (≈ 8.47 µg/mL) | 6.25 (≈ 16.9 µg/mL) | 3.13 (≈ 8.47 µg/mL) | 3.13 (≈ 8.47 µg/mL) | 12.5 (≈ 33.8 µg/mL) | 6.25 (≈ 16.9 µg/mL) | 6.25 (≈ 16.9 µg/mL) | 6.25 (≈ 16.9 µg/mL) | 6.25 (≈ 16.9 µg/mL) | 3.13 (≈ 8.47 µg/mL) | 3.13 (≈ 8.47 µg/mL) | 6.25 (≈ 16.9 µg/mL) | 6.25 (≈ 16.9 µg/mL) | 3.13 (≈ 8.47 µg/mL) | 12.5 (≈ 33.8 µg/mL) | 1.56 (≈ 4.22 µg/mL) | 12.5 (≈ 33.8 µg/mL) | 6.25 (≈ 16.9 µg/mL) | deltaG [2]: -11.8 kcal/mol; -TdeltaS [6]: 12.3 kcal/mol; Kd [7]: 0.139 µM; Kd [8]: 0.00205 µM; inhibition [10]: Active; Kd [11]: 3780 µM; -TdeltaS [13]: 70.6 kcal/mol; deltaG [18]: -9.36 kcal/mol; deltaH [20]: -80 kcal/mol; deltaH [22]: 9.06 kcal/mol; -TdeltaS [25]: -20.9 kcal/mol; deltaH [30]: -15.6 kcal/mol; deltaG [31]: -3.31 kcal/mol
CC[C@H](C)[C@H](NC(=O)CNC(=O)CCCCCN1C(=O)CC(SC[C@H](N)C(=O)NCC(=O)NCC(=O)N[C@H](C(=O)N[C@@H](CC(N)=O)C(=O)N[C@H]2CCNC(=O)[C@H](CC(C)C)NC(=O)[C@H](CC(C)C)NC(=O)[C@H](Cc3ccccc3)NC(=O)[C@H](C)NC2=O)[C@@H](C)CC)C1=O)C(=O)N[C@@H](CCCCN)C(=O)N[C@@H](CC(N)=O)C(=O)N[C@@H](C)C(=O)N[C@@H](Cc1c[nH]c2ccccc12)C(=O)N[C@@H](CCCCN)C(=O)N[C@@H](C)C(=O)N[C@@H](CCSC)C(=O)N[C@H](C(=O)N[C@@H](CCCCN)C(=O)N[C@@H](C)C(=O)N[C@@H](Cc1c[nH]c2ccccc12)C(=O)N[C@@H](Cc1ccc(O)cc1)C(=O)O)[C@@H](C)CC (stereo partly specified) (I: GIKNAWKAMIKAWY-OH / II: H-CGGIN[Dab]AFLL; linker I:N-II:1 via X1; lactam II:6-II:C) | 6.25 (≈ 17.9 µg/mL) | 3.13 (≈ 8.96 µg/mL) | 6.25 (≈ 17.9 µg/mL) | 6.25 (≈ 17.9 µg/mL) | 12.5 (≈ 35.8 µg/mL) | 6.25 (≈ 17.9 µg/mL) | 6.25 (≈ 17.9 µg/mL) | 3.13 (≈ 8.96 µg/mL) | 6.25 (≈ 17.9 µg/mL) | 6.13 (≈ 17.5 µg/mL) | 12.5 (≈ 35.8 µg/mL) | 6.25 (≈ 17.9 µg/mL) | 6.25 (≈ 17.9 µg/mL) | 6.25 (≈ 17.9 µg/mL) | 12.5 (≈ 35.8 µg/mL) | 3.13 (≈ 8.96 µg/mL) | 12.5 (≈ 35.8 µg/mL) | 12.5 (≈ 35.8 µg/mL) | CC50 [32]: 105 µM
CC1(C)S[C@@H]2[C@H](NC(=O)[C@H](N)c3ccccc3)C(=O)N2[C@H]1C(=O)O [AMPICILLIN] | 1.56 (≈ 0.545 µg/mL) | 6.25 (≈ 2.18 µg/mL) | 0.1 (≈ 0.0349 µg/mL) | 0.1 (≈ 0.0349 µg/mL) | – | > 100 | 12.5 (≈ 4.37 µg/mL) | 6.25 (≈ 2.18 µg/mL) | 0.19 (≈ 0.0664 µg/mL) | 0.39 (≈ 0.136 µg/mL) | 1.56 (≈ 0.545 µg/mL) | 0.19 (≈ 0.0664 µg/mL) | – | > 100 | 12.5 (≈ 4.37 µg/mL) | 0.39 (≈ 0.136 µg/mL) | 0.78 (≈ 0.273 µg/mL) | 0.78 (≈ 0.273 µg/mL) | –
